Source: article PMC12146338, “Bioanalytical assay for the quantification of rucaparib in rat plasma using UPLC-MS/MS: development, and validation for interaction with myricetin” (Frontiers in Pharmacology, 2025)

Key:
[1] = tested on: CYP2D6; design: method as in Lee et al., 2012; conditions: ref Lee et al., 2012; read-out: half-maximal inhibitory concentrations value, CYP2D6 metabolism; cited from earlier work
[2] = design: method as in Ross and Kasum, 2002; conditions: ref Ross and Kasum, 2002; cited from earlier work
[3] = Drug-drug interaction (DDI) pharmacokinetic study of rucaparib with or without myricetin in rats
Procedure: Twelve Sprague-Dawley (SD) male rats were provided with an appropriate environment with unrestricted water and food for seven consecutive days prior to the experiment. The day prior to the study, the rats underwent a 12-h period of fasting while being allowed unfettered access to water. Subsequently, they were randomly assigned to two groups (n = 6). Group A was received an oral dose of rucaparib at 20 mg/kg, while Group B was received an oral administration of rucaparib at 20 mg/kg along with myricetin at 50 mg/kg. The doses of rucaparib ([Augustine et al., 2019]) and myricetin ([Ye et al., 2024]) administered were determined based on prior literatures. Rucaparib was formulated in corn oil with myricetin prepared in 0.5% carboxymethylcellulose sodium (CMC-Na) solution. Group B rats were administered a single gavage of 50 mg/kg of myricetin, while Group A rats were received an equivalent volume of CMC-Na solution. Subsequently, at the 30 min mark, both groups were administered a single dose of 20 mg/kg of rucaparib. Before dosing (designated as 0 h) and at 1.5, 3, 4, 5, 6, 8, 12, 24 and 36 h post-dosing, 0.3 mL of plasma samples were drawn from the caudal vein. These samples were collected into heparin-containing tubes and then centrifuged at 8,000 rpm at 4°C for 10 min. Afterwards, the plasma was transferred to new tubes and preserved at −80°C for further analysis.
The DAS 3.0 software was used to calculate the pharmacokinetic parameters of rucaparib using a non-compartmental model. The key pharmacokinetic parameters of the two groups were analyzed using an independent samples t-test in SPSS 24.0. The p-value of less than 0.05 indicated a significant difference between the two groups. Mean plasma concentration-time curves were generated with GraphPad Prism 9.0 software (GraphPad Software Inc., California, United States).

[4] = Stability of rucaparib in rat plasma under different storage conditions (UPLC-MS/MS); assay type: in vitro ADME; conditions: n = 5
Procedure: The stability experiment was conducted at three different QCs (5.0, 200, and 400 ng/mL). It was carried out under various storage conditions, with each condition having five replicates (n = 5). These storage conditions encompassed stability within the analyzer (lasting for 4 h at 10°C), long-term storage (for 3 weeks at −80°C), short-term storage (for 3 h at room temperature) and freeze-thaw cycles (conducted three times).
The stability of rucaparib in rat plasma was examined under four distinct storage conditions. These included short-term storage (lasting 3 h at room temperature), exposure to three freeze-thaw cycles (transitioning from −80°C to room temperature), long-term storage (at −80°C for 21 days), and a 4 h placement in an autosampler maintained at 10°C.

[5] = male, Sprague-Dawley, rat, in vivo, po, 20 mg/kg

O=c1c(O)c(-c2cc(O)c(O)c(O)c2)oc2cc(O)cc(O)c12 [myricetin]
IC50 [1]: 57 µM | bioavailability [2]: low bioavailability | effect on plasma exposure to rucaparib ([3]; rats, 50 mg/kg myricetin + 20 mg/kg rucaparib vs rucaparib alone, independent samples t-test, p < 0.05): no significant effect

CNCc1ccc(-c2[nH]c3cc(F)cc4c3c2CCNC4=O)cc1 [Rucaparib]
Stability RE (%) ([4]; added 5.0 ng/mL, Autosampler 10°C, 4 h): 1.5% | Stability RE (%) ([4]; added 5.0 ng/mL, Room temperature, 3 h): −4.2% | Stability RE (%) ([4]; added 5.0 ng/mL, Three freeze-thaw): −10.1% | Stability RE (%) ([4]; added 5.0 ng/mL, −80°C, 3 weeks): 5.7% | Stability RE (%) ([4]; added 200 ng/mL, Autosampler 10°C, 4 h): 1.4% | Stability RE (%) ([4]; added 200 ng/mL, Room temperature, 3 h): −11.5% | Stability RE (%) ([4]; added 200 ng/mL, Three freeze-thaw): −1.6% | Stability RE (%) ([4]; added 200 ng/mL, −80°C, 3 weeks): 9.2% | Stability RE (%) ([4]; added 400 ng/mL, Autosampler 10°C, 4 h): 8.1% | Stability RE (%) ([4]; added 400 ng/mL, Room temperature, 3 h): −3.1% | Stability RE (%) ([4]; added 400 ng/mL, Three freeze-thaw): −11.6% | Stability RE (%) ([4]; added 400 ng/mL, −80°C, 3 weeks): 1.4% | AUC(0-inf) [3, 5]: 1320 ng·h/mL | AUC(0-t) [3, 5]: 1220 ng·h/mL | CL/F [3, 5]: 294 mL/min/kg | Cmax [3, 5]: 126 ± 58.5 ng/mL | Tmax [3, 5]: 4.25 ± 1.78 h | half-life [3, 5]: 10.9 ± 3.41 h
